The results in this text go back to BindingDB's records for doi:10.1016/s0960-894x(03)00663-2 (Universidad De Buenos Aires, 2003).

Experiment [1] addresses Farnesyl pyrophosphate synthase (Trypanosoma cruzi). The experiment is described as follows: Inhibition of Trypanosoma cruzi farnesyl pyrophosphate synthase.
A short description of experiment [2]: Binding affinity towards Trypanosoma cruzi farnesyl pyrophosphate synthase (TcFPPS).
The target of experiment [3] is Farnesyl pyrophosphate synthase (Trypanosoma cruzi). The experiment is described as above.
Test in experiment [4]: as above
The source holds these as a separate data set.

pIC50, pKi: −log10 of the molar value.

One may read the pIC50 as the negative decadic logarithm of the IC50, by convention in mol/L. The low end stands for a high IC50, the high end for a low IC50. As a reminder, the pKi is the negative decadic logarithm of the Ki, by convention in mol/L. For the compound `CCCC(P(=O)(O)O)P(=O)(O)O` [(1-Phosphono-butyl)-phosphonic acid], in experiment [1], the pIC50 was 3.82. In experiment [2], the negative logarithm of the Ki (pKi) is 4.77.

In turn, `CCCCCCC(P(=O)(O)O)P(=O)(O)O` [(1-Phosphono-heptyl)-phosphonic acid] had a negative logarithm of the IC50 (pIC50) in experiment [1] of 5.34. The compound also gave a negative logarithm of the Ki (pKi) in experiment [3] of 6.27.

In experiment [1], `CCCCCC(P(=O)(O)O)P(=O)(O)O` [(1-Phosphono-hexyl)-phosphonic acid] gave a pIC50 of 5.25. In experiment [4], this compound showed a pKi of 6.33.

In experiment [1], `CCCCCCCCC(P(=O)(O)O)P(=O)(O)O` [(1-Phosphono-nonyl)-phosphonic acid] had a pIC50 of 5.37. This compound also showed a pKi in experiment [3] of 6.51.

Consider `CCCCCCCC(P(=O)(O)O)P(=O)(O)O` [(1-Phosphono-octyl)-phosphonic acid], for which the pIC50 in experiment [1] was 4.70. In experiment [3], this compound gave a pKi of 5.73.

`CCCCC(P(=O)(O)O)P(=O)(O)O` [(1-Phosphono-pentyl)-phosphonic acid] showed a pIC50 in experiment [1] of 5.24. Moreover, the pKi in experiment [2] is 6.10.

As to `CCC(P(=O)(O)O)P(=O)(O)O` [(1-Phosphono-propyl)-phosphonic acid], in experiment [1], the pIC50 is < 4.00.
